Source: patent US20260008762A1, “CANNABINOID ACIDS CRYSTALLINE FORMS, METHODS OF PRODUCING, AND USES THEREOF” (priority 2022, published 2026)

Key:
[1] = Thermogravimetric analysis (TGA) of crystalline form; assay type: physicochemical; details: crystalline single component form, dry nitrogen flow
Method: Thermal gravimetric analysis (TGA) was carried out using a TA instruments 2910 under dry nitrogen flow (30 mL/min for both the furnace and the balance). For a typical experiment, 5-10 mg of solid material was placed into the pan and was allowed to equilibrate at room temperature under nitrogen for approximately 5 minutes prior to the start of each experiment to ensure a stable baseline. A heating rate of 1° C./min or 5° C./min was utilized.

[2] = molecular target: SARS-CoV-2 spike protein S1 C-terminal domain (Severe acute respiratory syndrome coronavirus 2, UniProt P0DTC2); details: can inhibit the virus' ability to enter new host cells; cited from earlier work
[3] = compared with THCa under similar conditions; cited from earlier work

Compound	TGA degradation onset [1]	binding to SARS-CoV-2 spike protein S1 C-terminal domain [2]	rate of decarboxylation [3]
C=C(C)[C@@H]1CCC(C)=C[C@H]1c1c(O)cc(CCCCC)c(C(=O)O)c1O [CBDa, cannabidiolic acid]	about 150 °C	found to bind to the SARS-CoV-2 spike protein S1 C-terminal domain	decarboxylates at a faster rate than THCa
CCCCCc1cc(O)c(C/C=C(\C)CCC=C(C)C)c(O)c1C(=O)O [CBGa, cannabigerolic acid]	about 115 °C	found to bind to the SARS-CoV-2 spike protein S1 C-terminal domain	–
CCCCCc1cc2c(c(O)c1C(=O)O)[C@@H]1C=C(C)CC[C@H]1C(C)(C)O2 [THCa, tetrahydrocannabinolic acid]	about 125 °C	–	–
